Columns and labels:
[1] = tested on: BKPyV; test: BKPyV infection of RPTE/TERT1 cells, immunofluorescence count of LTAg / VP1 positive cells; format: cell-based, BK polyomavirus; details: 48 hpi; for early gene (LTAg) expression, LTAg positive cells as a proportion of DAPI-positive cells / late gene (VP1) expression, VP1 positive cells as a proportion of DAPI-positive cells: particularly at double proliferative IC50 (20 µM PF-9366, 514 nM AG-270), MOI 1
Experimental: (A) Effect of PF-9366 on viral early gene expression: Cells were infected with BKPyV (MOI 1) in media containing appropriate drug concentrations. At 1 hpi infectious media was removed, cells were washed and fresh media with appropriate drug concentrations was added. Cells were formaldehyde fixed at 48 hpi and stained for DAPI and LTAg expression and detected by fluorescence microscopy. The number of infected LTAg positive cells were recorded, normalized to cell number. n=3.
Effect of drug treatment on cellular replication and survival and viral early gene expression: Cells were infected with BKPyV (MOI 1) in media containing appropriate drug concentrations. At 1 hpi infectious media was removed, cells were washed and fresh media with appropriate drug concentrations was added. Cells were formaldehyde fixed at 48 hpi and stained for nuclear DAPI and LTAg expression, then detected by fluorescence microscopy. The number of cells per well were determined through DAPI analysis (i) Effect of drug treatment on viral early and late gene expression: The number of infected cells were determined by LTAg (early gene) and VP1 (late gene) expression (ii).
Treatment began 3 hours prior to infection and continued throughout infection. Cells were infected with BKPyV (MOI 1), at 1 hpi cells were washed with PBS and replenished with fresh drug treated media. At 48 hpi cells were fixed with 3% formaldehyde and stained for LTAg expression, and the nuclei counterstained with DAPI. The number of LTAg positive cells were counted and normalised to the total cell number in each condition, and the fold change in proportion of LTAg positive cells for each concentration of PF-9366 was normalised to untreated control.
To investigate whether MAT2A inhibition by a structurally different inhibitor to PF-9366 could cause similar effects, the effect of AG-270 on BKPyV infection was investigated. As above, drugs were used to treat cells from 3 hours prior to infection. Drug concentrations used were the IC50 value defined by inhibition of cell proliferation (proliferative IC50) or double the proliferative IC50, and DMSO was used as a control. Cells were infected with BKPyV (MOI 1), at 1 hpi cells were washed and fresh drug-containing media was added. At 48 hpi cells were fixed in 3% formaldehyde and stained for DAPI, viral early gene LTAg, and viral late gene VP1. The number of cells in each condition were counted and normalised to DMSO treated cells (FIG. 4A(i)). The number of cells represents both cell viability, and the ability of the drug in question to inhibit cellular proliferation.
For BKPyV infections, RPTE/TERT1, RPTE/TERT1-Cas9 or RPTE/TERT1 MAT2A KO cells were infected with BKPyV at either a multiplicity of infection (MOI) of 5 for growth curves or an MOI of 3 or 1 for all other experiments, diluted in appropriate medium. At 1 hour post infection (hpi) medium was removed, cells were washed twice with phosphate-buffered saline (PBS), and fresh medium was added with or without inhibitors. At 24, 48, 72 or 96 hpi cells were either harvested for western blot, RT qPCR or virus titre by FFU assay, or fixed for immunofluorescence analysis.
For fluorescence intensity analysis, 20 fields of view were captured for each experiment. All quantification analyses were carried out using ImageJ and an optimised robust automated detection pipeline Schindelin et al. (Nat Methods. 2012 Jun. 28; 9 (7): 676-82). […] LTAg-staining patterns across each field of view were measured by quantifying the fluorescence intensity using the Mean Grey Value (MGV) function of ImageJ and averaging the results for each experimental condition. Individual cell fluorescence intensity was determined by drawing polygon selections around each LTAg-positive nuclei in ImageJ and measuring the nuclear area, MGV and integrated density, then doing the same for background areas close to each nuclei measured. […]

[2] = tested on: BKPyV; test: Western blot of BKPyV viral protein expression (LTAg, VP1) in RPTE/TERT1 cells; format: cell-based, BK polyomavirus
Experimental: (C)(i) Effect of PF-9366 on viral early and late gene and cellular MAT2A expression: Cells were infected with BKPyV (MOI 3) in media containing appropriate drug concentrations. At 1 hpi infectious media was removed, cells were washed and fresh media with appropriate drug concentrations was added. Cells were harvested at 48 hpi and a western blot performed. Membranes were blotted for viral late gene VP1, LTAg, cellular MAT2A/MAT1A, and tubulin as a loading control.
(iii) Viral gene expression is modulated in response to PF-9366: The density of BKPyV VP1 and LTAg expression were measured, normalized to tubulin loading control (LiCor Image Studio Software), n=3.
Cells were treated with MAT2A inhibitors at 1 hr post infection and were harvested at 48 hr post infection at MOI 1. (A) Total infectious BKPyV synthesis expressed as fold change to DMSO control (FFU titre assay). (B) Total viral protein expression (LTAg and VP1) was analysed by western blot. Tubulin was used as loading control. All error bars represent SEM. Two sample paired T-test was used to determine significance (*p<0.05; **p<0.01; ***p<0.001, ****p<0.0001), all numerical data shown were obtained over 2 independent experiments.
RPTE/hTERT cells were treated with inhibitors at 1 hr post infection (PI), infected at MOI 1. (A) Viral growth curves using FFU titre assay in drug treated and untreated cells infected with BKPyV at MOI 1 for 48 hr PI, 72 hr PI and 96 hr PI. (B) Total viral protein expression (LTAg and VP1) from drug treatments and untreated control was analysed by western blot with samples harvested at 48 hr PI and 96 hr PI. Tubulin was used as loading control. All error bars represent SEM. All numerical data shown were obtained over 2 independent experiments.
It has previously been noted by Quinlan et al. (Nat Chem Biol. 2017 13 (7): 785-792) that treatment with PF-9366 can increase MAT2A expression as a compensatory mechanism within cells. To investigate this, cells were once again treated with a range of PF-9366 for 3 hours prior to infection (or DMSO treated). Cells were infected with BKPyV (MOI 3), washed at 1 hpi, and fresh drug treated media was added. At 48 hpi cells were harvested and protein expression was analysed by western blotting (FIG. 3C(i)). MAT2A expression was quantified from band intensities, normalised to the tubulin loading control and plotted (FIG. 3C(ii), n=3). A clear increase in the cellular expression of MAT2A was observed, up to an 8-fold increase at 10 μM PF-9366. Western blot analysis was also conducted on early viral gene (LTAg) and late viral gene (VP1) expression (FIG. 3C(iii), n=3).
Cell lysate preparation and western blots were performed as described in Ren et al. (J Gen Virol. 2012 February; 93 (Pt 2): 319-329). Primary antibodies used were ab53977 (VP1), PAb416 (LTAg), sc-166452 (MAT2A/1A), ab110226 (VP16), sc-53070 (ICP0), anti-Zika E Protein, and either anti-GAPDH or anti-tubulin as a loading control, followed by IRDye 680LT-, or IRDye 800CW-conjugated secondary antibodies. Imaging was performed using the LI-COR Odyssey Infrared Imaging system. Quantification was performed using LI-COR Image Studio Software.

[3] = 125 nM to 1 μM, dose dependent, MOI 1, 48 hr post infection

Row | Structure (SMILES) | early gene (LTAg) expression, LTAg positive cells as a proportion of DAPI-positive cells [1] | late gene (VP1) expression, VP1 positive cells as a proportion of DAPI-positive cells [1] | early viral protein (LTAg) levels (western blot) [2, 3] | late viral protein (VP1) levels (western blot) [2, 3] | reduction in LTAg positive cells ([1]; 40 μM, BKPyV MOI 1, normalised to untreated control) | number of LTAg positive cells ([1]; PF-9366 concentrations of 5 μM and above, BKPyV MOI 1, treatment from 3 h prior to infection) | VP1 expression (western blot) ([2]; across the concentration range of PF-9366, BKPyV MOI 3, 48 hpi) | expression of LTAg (western blot) ([2]; two highest concentrations of PF-9366, BKPyV MOI 3, 48 hpi)
1 | COc1ccc(-c2c(Nc3ccccn3)[nH]c3c(C4=CCCCC4)c(-c4ccccc4)nn3c2=O)cc1 [AG-270] | reduced | reduced | reduced | reduced | – | – | – | –
2 | CN(C)CCc1nnc2cc(-c3ccccc3)c3cc(Cl)ccc3n12 [PF-9366] | reduced | reduced | – | – | ~95% | significantly reduced | dose-dependent reduction | Reduced expression
